Measured values: US4450167A, “3-Quinoline carboxamides having anxiolytic activity” (Roussel Uclaf, priority 1981, dated 1984)

molecular target: benzodiazepine receptors; assay: Affinity for benzodiazepine receptors (3H Diazepam displacement, rat cortex membranes); format: binding; details: rat brain cortex membranes, 3H Diazepam 10^-9 moles, 0° C., 30 minutes; read-out: CI50, concentration inhibiting by 50% the specific bonding of 3H diazepam
Experimental: The test was inspired by Mohler et al [Science, No. 198 (1977), p. 849-851] in which the cortex was removed from the brains of male rats weighing an average of 150 g and homogenized at a ratio of 1 part by weight per 20 parts by volume of 0.32 M sucrose. The homogenized mixture was centrifuged at 1000 g for 10 minutes at 0° C. and the surnageant was centrifuged at 30,000 g for 20 minutes at 4° C. The culot was suspended in 20 volumes of Tris HCl 50 mM buffer with a pH of 7.4 and the suspension was centrifuged at 30,000 g for 20 minutes at 4° C. The resulting culot was suspended in 50 ml of Krebs Tris HCl buffered at a pH of 7.4 and 2 ml of the suspension was incubated at 0° C. for 30 minutes in the presence of ^3 H Diazepam at a concentration of 10^-9 moles with increasing concentration of the test product to determine the non-specificfixation with non-radioactive Diazepam at a concentration of 10^-6 moles.
The incubated suspensions were filtered through a Whatman GF/C filter and the filters were washed twice with 5 ml of Krebs Tris HCl buffer at a pH of 7.4 not 0° C. The radioactivity of the filters was measured by liquid scintillation and the affinity of the test product for benzodiazepine receptors was expressed in CI50 or the concentration inhibiting by 50% the specific bonding of ^3 H diapezam.

Compound | IC50 [nM]
CCOc1ccc(NC(=O)c2cnc3ccccc3c2O)cc1 [Example 1, 4-hydroxy-N-(4-ethoxyphenyl)-3-quinoline-carboxamide] | 40
COc1ccc(NC(=O)c2cnc3ccccc3c2O)cc1 [Example 6, 4-hydroxy-N-(4-methoxyphenyl)-3-quinoline-carboxamide] | 7.5
O=C(Nc1ccc(O)cc1)c1cnc2ccccc2c1O [Example 7, 4-hydroxy-N-(4-hydroxyphenyl)-3-quinoline-carboxamide] | 4.4
CCNC(=O)c1cnc2ccccc2c1O [Example 8, 4-hydroxy-N-ethyl-3-quinoline-carboxamide] | 11
CCCCNC(=O)c1cnc2ccccc2c1O [Example 9, 4-hydroxy-N-butyl-3-quinoline-carboxamide] | 3.7
CCCCCCNC(=O)c1cnc2ccccc2c1O [Example 10, 4-hydroxy-N-n-hexyl-3-quinoline-carboxamide] | 6.7
COc1ccccc1NC(=O)c1cnc2ccccc2c1O [Example 13, 4-hydroxy-N-(2-methoxy-phenyl)-3-quinoline-carboxamide] | 54
COc1cccc(NC(=O)c2cnc3ccccc3c2O)c1 [Example 16, 4-hydroxy-N-(3-methoxy-phenyl)-3-quinoline-carboxamide] | 6.6
COc1ccc(NC(=O)c2c(C)nc3ccccc3c2O)cc1 [Example 23, 4-hydroxy-N-(4-methoxyphenyl)-2-methyl-3-quinoline-carboxamide] | 23
CCCNC(=O)c1cnc2ccccc2c1O [Example 24, 4-hydroxy-N-propyl-3-quinoline-carboxamide] | 1.2
